In paper PMC6838762 (Biophysical Journal, 2019) one finds Kd data, which are given here for one substance.

The experiment has as its target T1, FeuA (Bacillus subtilis, UniProt P40409, Q131C).
T1 sequence (P40409 21-317 Q131C): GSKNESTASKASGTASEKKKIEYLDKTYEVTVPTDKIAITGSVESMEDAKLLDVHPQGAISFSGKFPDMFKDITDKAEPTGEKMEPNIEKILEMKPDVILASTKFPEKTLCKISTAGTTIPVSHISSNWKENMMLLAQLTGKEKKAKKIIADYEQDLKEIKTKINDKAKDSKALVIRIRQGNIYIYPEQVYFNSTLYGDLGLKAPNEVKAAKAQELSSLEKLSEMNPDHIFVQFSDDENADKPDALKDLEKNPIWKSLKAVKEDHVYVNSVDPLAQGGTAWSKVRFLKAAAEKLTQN
Format: binding.

Usually Kd stands for the free concentration of one partner at which half of the binding sites on the other are occupied at equilibrium, for simple one-to-one binding. With ferri-bacillibactin [FeBB], binding was put at a Kd of 20 ± 3 nM.
